Laboratory results taken from PMC12929930, “Conformational Trajectory of the Molecular Chameleon Grazoprevir From Formulation to Target‐Bound” (Chemistry (Weinheim an Der Bergstrasse, Germany), 2025).
Where two headings read alike, the source gives them in different places.

Assays:
[1] = cited from earlier work; for SA 3D PSA variation between solution conformations / spread in Rgyr for the solution ensembles: solution ensembles
Text: Grazoprevir (Figure 1a) is a second‐generation hepatitis C virus (HCV) nonstructural 3/4A (NS3/NS4A) protease inhibitor developed by Merck in 2012 and approved by the FDA in 2016 as part of an orally administered combination therapy with elbasvir. Like most NS3/NS4A protease inhibitors, grazoprevir is orally available despite its limited water solubility (Table S21). The potential chameleonicity of grazoprevir has not yet been structurally characterized. Determining the structures of bRo5 inhibitors like grazoprevir in various states is crucial for understanding their chame ... || For bRo5‐drugs, 3D descriptors such as the R gyr as a measure of size instead of molecular weight, and the SA 3D PSA instead of the number of hydrogen bond donors and acceptors, often provide a better view to explain their aqueous solubility and membrane permeability. Even though the exact values of the R gyr and SA 3D PSA for a single conformation might not be informative, they can give a perspective when compared for conformations between solvents or between similar compounds [6, 23]. In solution the SA 3D PSA varies by 79 Å^2 (Supporting information Figure S13) between the c ...

[2] = assay type: physicochemical; conditions: pH 7.4
Text: (§1) Solubility and Cell permeability
(§2) The thermodynamic aqueous solubility, LogD and cell permeability across MCDCK cell monolayers
(§3) Table S21. MCDCK permeability data and efflux ratios (ERs) for grazoprevir.
Solubility LogD7.4[b] PappAB (x10-6 ER[d] […]
[b] Determined using a miniaturized shake-flask procedure. Values are means from three repeats. […]

[3] = system: MCDCK cell monolayers; assay type: in vitro ADME
Text: as §1, §2, §3
(§4) Solubility LogD7.4[b] PappAB (x10-6 ER[d]
[a] Determined in aqueous potassium phosphate buffer at pH 7.4. Values are means ± std from three repeats.
[b] Determined using a miniaturized shake-flask procedure. Values are means from three repeats.
[c] Papp AB: permeability in the apical-to-basolateral (AB) direction across MCDCK cell monolayers. Values are
means + std from three repeats.
[d] ER: efflux ratio (Papp BA/Papp AB).

[4] = assay type: physicochemical; conditions: pH 7.4; remark: listed apart in the source
Text: as §1, §2, §3, §4
[a] Determined in aqueous potassium phosphate buffer at pH 7.4. Values are means ± std from three repeats. […]

[5] = system: MCDCK cell monolayers; conditions: comparison value quoted in Conclusions; not in the printed Table S21; cited from earlier work
Text: This study presents a comprehensive analysis of a macrocyclic drug's conformational journey by experimental means; from the solid state, through solution environments, to the target‐bound state. […] By determining solution‐state ensembles of grazoprevir in both polar and apolar environments—mimicking extracellular and membrane‐like conditions—and comparing these to previously repo ...

[6] = conformations assessed computationally

For C=C[C@@H]1C[C@]1(NC(=O)[C@@H]1C[C@@H](Oc2ncc(OC)c3ccc(Cl)cc23)CN1C(=O)[C@@H](NC(=O)OC(C)(C)C)C(C)(C)C)C(=O)NS(=O)(=O)C1CC1 [asunaprevir], the “SA 3D PSA variation between solution conformations” value [1] is listed as 88 Å^2 and the “spread in Rgyr for the solution ensembles” value [1] is listed as 1.22 Å.

For C=C[C@@H]1C[C@]1(NC(=O)[C@@H]1C[C@@H]2CN1C(=O)[C@H](C(C)(C)C)NC(=O)O[C@@H]1C[C@H]1CCCCCc1nc3ccc(OC)cc3nc1O2)C(=O)NS(=O)(=O)C1CC1.O [grazoprevir, Grazoprevir], the LogD7.4 [2] was 3.4, the “ER (efflux ratio, Papp BA/Papp AB)” value [3] was 3.1 and the PappAB [3] was 5.9 ± 0.89 x10-6 cm/s. It also gave a passive membrane permeability [3] of 5.9 ×10⁻⁶ cm/s and a Solubility [4] of 12.9 ± 2.6 µM.

For Cc1cnc(C(=O)N[C@H]2CCCCC/C=C\[C@@H]3C[C@@]3(C(=O)NS(=O)(=O)C3CC3)NC(=O)[C@@H]3C[C@@H](Oc4nc5ccccc5c5ccccc45)CN3C2=O)cn1 [paritaprevir], the “Rgyr range for the solution conformations (polar-to-apolar span)” value [1, 6] is listed as 0.36 Å and the “SA 3D PSA polar-to-apolar span” value [1, 6] is listed as 76 Å^2.

In the case of COc1ccc2c(O[C@@H]3C[C@H]4C(=O)N[C@]5(C(=O)NS(=O)(=O)C6CC6)C[C@H]5/C=C\CCCCN(C)C(=O)[C@@H]4C3)cc(-c3nc(C(C)C)cs3)nc2c1C [simeprevir], the passive membrane permeability [5] is listed as 0.5 ×10⁻⁶ cm/s, the “SA 3D PSA variation between solution conformations” value [1] is listed as 72 Å^2 and the “spread in Rgyr for the solution ensembles” value [1] is listed as 1.11 Å.
